From ChEMBL document CHEMBL4715869, “N-(Pyrimidin-2-yl)-1,2,3,4-tetrahydroisoquinolin-6-amine Derivatives as Selective Janus Kinase 2 Inhibitors for the Treatment of Myeloproliferative Neoplasms” (J Med Chem, 2020)
pIC50: −log10 of the molar value. Activity calls are given as the source filed them. No cut-off for these calls is given here.

Experiments:
[1] = biological target: Receptor-type tyrosine-protein kinase FLT3 (Homo sapiens) (UniProt P36888); test: Inhibition of FLT3 in human SET2 cells assessed as decrease in AKT phosphorylation at 1 to 1000 nM after 2 hrs by Western blot analysis; format: cell-based; conditions: dose 1-1000 nM
SET-2 [2] = test: Induction of apoptosis in human SET-2 cells assessed as live cells at 0.05 uM incubated for 24 hrs by Annexin V/PI staining based flow cytometric analysis (reference value: 96.23 %); format: functional
[3] = biological target: Receptor-type tyrosine-protein kinase FLT3 (Homo sapiens) (UniProt P36888); test: Inhibition of FLT3 in human SET2 cells assessed as decrease in FLT3 phosphorylation at 1 to 1000 nM after 2 hrs by Western blot analysis; format: cell-based; conditions: dose 1-1000 nM
SET-2 [4] = test: Induction of apoptosis in human SET-2 cells assessed as early apoptotic cells at 0.8 uM incubated for 24 hrs by Annexin V/PI staining based flow cytometric analysis (reference value: 1.47 %); format: functional
SET-2 [5] = test: Induction of apoptosis in human SET-2 cells assessed as live cells at 0.2 uM incubated for 24 hrs by Annexin V/PI staining based flow cytometric analysis (reference value: 96.23 %); format: functional
SET-2 [6] = test: Induction of apoptosis in human SET-2 cells assessed as early apoptotic cells at 1.6 uM incubated for 24 hrs by Annexin V/PI staining based flow cytometric analysis (reference value: 1.47 %); format: functional
SET-2 [7] = test: Induction of apoptosis in human SET-2 cells assessed as early apoptotic cells at 0.2 uM incubated for 24 hrs by Annexin V/PI staining based flow cytometric analysis (reference value: 1.47 %); format: functional
BaF3 [8] = test: Antitumor activity against mouse BAF3 cells harboring JAK2 V617F mutant implanted in Balb/c mouse assessed as decrease in liver weight at 60 mg/kg, po qd administered starting from day 4 to 20 and measured on day 25 relative to control; format: functional; set-up: scale not given: the % may be the effect or the level left; conditions: time 21 day
[9] = test system: Tyrosine-protein kinase JAK2 (Homo sapiens), O60674 [V617F]; test: Inhibition of JAK2 V617F mutant in human SET-2 cells assessed as reduction in STAT5 phosphorylation after 2 hrs by Western blot analysis; format: cell-based; conditions: SET2, dose 1-1000 nM
Tyrosine-protein kinase JAK2 (Homo sapiens), O60674 [V617F], sequence (O60674 whole entry V617F): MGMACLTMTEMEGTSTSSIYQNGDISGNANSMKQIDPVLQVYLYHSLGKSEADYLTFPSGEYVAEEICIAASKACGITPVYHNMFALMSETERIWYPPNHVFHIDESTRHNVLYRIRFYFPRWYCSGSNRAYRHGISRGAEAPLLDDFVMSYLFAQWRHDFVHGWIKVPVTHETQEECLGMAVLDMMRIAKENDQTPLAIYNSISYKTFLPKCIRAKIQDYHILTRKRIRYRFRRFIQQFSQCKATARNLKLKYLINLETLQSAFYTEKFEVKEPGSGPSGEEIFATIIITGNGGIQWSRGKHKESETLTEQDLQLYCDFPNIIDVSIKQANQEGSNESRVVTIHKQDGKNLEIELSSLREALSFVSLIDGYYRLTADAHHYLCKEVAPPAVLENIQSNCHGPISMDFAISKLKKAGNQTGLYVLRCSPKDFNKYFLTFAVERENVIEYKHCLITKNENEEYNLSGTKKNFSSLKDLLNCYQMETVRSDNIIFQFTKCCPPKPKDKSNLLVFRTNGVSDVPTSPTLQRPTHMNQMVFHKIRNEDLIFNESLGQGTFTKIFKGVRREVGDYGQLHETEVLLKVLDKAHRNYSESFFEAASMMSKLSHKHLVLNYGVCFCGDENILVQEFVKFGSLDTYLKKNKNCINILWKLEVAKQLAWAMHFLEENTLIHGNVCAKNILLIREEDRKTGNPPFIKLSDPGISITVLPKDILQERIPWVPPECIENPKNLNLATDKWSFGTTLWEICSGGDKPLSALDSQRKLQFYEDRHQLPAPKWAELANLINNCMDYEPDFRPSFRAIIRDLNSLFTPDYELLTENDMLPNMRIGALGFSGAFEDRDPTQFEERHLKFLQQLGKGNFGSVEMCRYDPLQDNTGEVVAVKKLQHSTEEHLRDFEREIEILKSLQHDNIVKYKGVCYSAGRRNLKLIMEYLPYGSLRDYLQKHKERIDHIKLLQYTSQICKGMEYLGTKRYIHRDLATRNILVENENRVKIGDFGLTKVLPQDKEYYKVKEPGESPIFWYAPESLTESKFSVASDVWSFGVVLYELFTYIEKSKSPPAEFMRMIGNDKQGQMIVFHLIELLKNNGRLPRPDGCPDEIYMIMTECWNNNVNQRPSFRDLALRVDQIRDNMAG

[10] = biological target: Signal transducer and activator of transcription 3 (Mus musculus) (UniProt P42227); test: Inhibition of STAT3 phosphorylation in mouse BAF3 cells at 1000 nM after 2 hrs by Western blot analysis; format: cell-based
Signal transducer and activator of transcription 3 (Mus musculus), sequence (P42227 whole entry): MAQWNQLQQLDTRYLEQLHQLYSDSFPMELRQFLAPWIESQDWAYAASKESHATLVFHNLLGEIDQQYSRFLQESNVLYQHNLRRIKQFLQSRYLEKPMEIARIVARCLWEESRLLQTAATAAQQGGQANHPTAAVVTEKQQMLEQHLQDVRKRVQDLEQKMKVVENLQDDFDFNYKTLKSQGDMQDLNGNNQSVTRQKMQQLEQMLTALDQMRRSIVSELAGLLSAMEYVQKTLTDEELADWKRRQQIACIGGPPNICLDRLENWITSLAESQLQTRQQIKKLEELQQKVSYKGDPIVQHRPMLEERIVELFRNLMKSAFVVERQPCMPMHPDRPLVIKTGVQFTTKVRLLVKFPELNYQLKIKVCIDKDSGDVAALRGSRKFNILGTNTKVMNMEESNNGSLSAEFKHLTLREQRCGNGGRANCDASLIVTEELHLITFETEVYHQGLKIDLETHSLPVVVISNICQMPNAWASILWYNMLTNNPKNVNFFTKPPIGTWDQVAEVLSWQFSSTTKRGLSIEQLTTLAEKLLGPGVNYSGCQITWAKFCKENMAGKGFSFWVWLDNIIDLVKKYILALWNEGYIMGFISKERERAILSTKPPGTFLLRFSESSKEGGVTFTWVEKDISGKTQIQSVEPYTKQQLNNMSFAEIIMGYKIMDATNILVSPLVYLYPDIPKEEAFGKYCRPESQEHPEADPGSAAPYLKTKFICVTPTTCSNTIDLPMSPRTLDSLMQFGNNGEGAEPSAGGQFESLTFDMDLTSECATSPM

SET-2 [11] = test: Induction of apoptosis in human SET-2 cells assessed as necrotic cells at 0.8 uM incubated for 24 hrs by Annexin V/PI staining based flow cytometric analysis (reference value: 0.78%); format: functional
Mus musculus = test: In vivo inhibition of JAK2 V617F mutant in mouse BAF3 cells xenografted Balb/c nude mouse assessed as decrease in STAT5 phosphorylation in spleen at 30 to 60 mg/kg, po qd administered starting from day 4 to 20 and measured on day 25 by Western blot analysis; format: functional, organism-based; conditions: dose 30-60 mg/kg, time 21.0 day
SET-2 [12] = test: Induction of cell cycle arrest in human SET2 cells assessed as accumulation at G0/G1 phase incubated for 24 hrs by propidium iodide staining based flow cytometry; format: functional; conditions: dose 10-160 nM
[13] = biological target: T1, Signal transducer and activator of transcription 1 (Mus musculus) (UniProt P42225); test: Inhibition of STAT1 phosphorylation in mouse BAF3 cells at 1000 nM after 2 hrs by Western blot analysis; format: cell-based
T1 sequence (whole entry): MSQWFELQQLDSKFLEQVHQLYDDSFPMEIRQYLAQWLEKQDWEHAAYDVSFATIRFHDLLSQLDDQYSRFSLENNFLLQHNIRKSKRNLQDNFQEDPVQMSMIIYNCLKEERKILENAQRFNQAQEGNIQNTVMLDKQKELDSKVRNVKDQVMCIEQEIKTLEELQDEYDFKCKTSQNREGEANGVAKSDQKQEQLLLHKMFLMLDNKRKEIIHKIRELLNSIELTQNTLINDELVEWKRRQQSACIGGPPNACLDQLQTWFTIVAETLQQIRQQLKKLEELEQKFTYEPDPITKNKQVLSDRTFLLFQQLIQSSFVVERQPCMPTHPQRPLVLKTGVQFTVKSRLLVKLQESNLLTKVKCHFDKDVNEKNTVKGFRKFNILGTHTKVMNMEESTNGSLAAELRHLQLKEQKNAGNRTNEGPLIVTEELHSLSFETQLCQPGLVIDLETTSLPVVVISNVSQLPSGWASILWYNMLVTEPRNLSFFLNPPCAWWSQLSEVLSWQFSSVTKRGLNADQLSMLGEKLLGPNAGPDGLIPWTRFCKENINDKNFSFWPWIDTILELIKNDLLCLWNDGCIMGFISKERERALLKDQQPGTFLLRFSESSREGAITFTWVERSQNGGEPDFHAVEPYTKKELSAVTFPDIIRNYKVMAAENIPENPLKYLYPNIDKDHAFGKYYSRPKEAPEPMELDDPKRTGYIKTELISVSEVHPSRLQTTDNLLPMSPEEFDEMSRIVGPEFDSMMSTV

[14] = Selectivity index, ratio of IC50 for inhibition of recombinant human JAK3 (781 to end residues) to IC50 for inhibition of recombinant human JAK2 (808 to end residues)
[15] = Elimination half life in male Sprague-Dawley rat at 5 mg/kg, iv administered […] measured upto 24 hrs by LC/MS/MS analysis; format: ADME, organism-based; conditions: in vivo, read-out: beta t1/2 (converted)
[16] = test system: Tyrosine-protein kinase JAK2 (Homo sapiens), O60674 [V617F]; test: Inhibition of JAK2 V617F mutant in human SET-2 cells assessed as reduction in JAk2 phosphorylation after 2 hrs by Western blot analysis; format: cell-based; conditions: SET2, dose 1-1000 nM
[17] = Tmax in male Sprague-Dawley rat at 5 mg/kg, iv administered […] measured upto 24 hrs by LC/MS/MS analysis; format: ADME, organism-based; conditions: in vivo
BaF3 [18] = test: Antitumor activity against mouse BAF3 cells harboring JAK2 V617F mutant implanted in Balb/c mouse assessed as decrease in spleen weight at 60 mg/kg, po qd administered starting from day 4 to 20 and measured on day 25 relative to control; format: functional; set-up: scale not given: the % may be the effect or the level left; conditions: time 21 day
[19] = AUC (0 to t) in Sprague-Dawley rat at 5 mg/kg, po administered via gavage measured upto 24 hrs by LC/MS/MS analysis; format: ADME, organism-based; set-up: route oral, dose 5 mg/kg, time <=24; conditions: in vivo
[20] = Oral bioavailability in Sprague-Dawley rat at 5 mg/kg administered via gavage measured upto 24 hrs by LC/MS/MS analysis; format: ADME, organism-based; conditions: in vivo
[21] = biological target: Receptor-type tyrosine-protein kinase FLT3 (Homo sapiens, UniProt P36888, D835Y); test: Inhibition of recombinant human FLT3 D835Y mutant (564 to end residues) using EAIYAAPFAKKK as substrate at 40 mins in presence of [gamma-33ATP] by scintillation counting based radiometry assay
[22] = Toxicity in NOD/SCID mouse xenografted with human SET2 cells assessed as animal death at 15 to 60 mg/kg, po qd administered for 16 days and measured after 36 days; format: organism-based; conditions: in vivo, 864 h, dose 15-60 mg/kg, time 36 day
[23] = biological target: Tyrosine-protein kinase JAK2 (Homo sapiens, UniProt O60674); test: Inhibition of recombinant human JAK2 (808 to end residues) KTFCGTPEYLAPEVRREPRILSEEEQEMFRDFDYIADWC as substrate measured after 40 mins in presence of [gamm33P]ATP by scintillation counting method
Tyrosine-protein kinase JAK2, sequence (O60674 whole entry): as the sequence (O60674 whole entry V617F) above, with F617V counted along it

Cc1cnc(Nc2ccc3c(c2)CCN(C(=O)/C=C/CN(C)C)C3)nc1-c1cnn(C(C)C)c1
inhibition [1]: inactive
Activity (SET-2 [2]): 94.6%
inhibition [3]: inactive
Activity (SET-2 [4]): 9.12%
Activity (SET-2 [5]): 90.35%
Activity (SET-2 [6]): 27.3%
Activity (SET-2 [7]): 3.36%
Activity (BaF3 [8]): 66.3%
inhibition [9]: Dose-dependent effect
inhibition [10]: inactive
Activity (SET-2 [11]): 1.37%
inhibition (Mus musculus): Active
Activity (SET-2 [12]): Dose-dependent effect
inhibition [13]: inactive
Ratio IC50 [14]: 31
half-life [15]: 4 h
inhibition [16]: Dose-dependent effect
Tmax [17]: 4.8 min
Activity (BaF3 [18]): 77.1%
AUC(0-t) at 24 h [19]: 254 ng·h/mL
bioavailability [20]: 25.7%
pIC50 [21]: 7.21
Activity [22]: Toxic
pIC50 [23]: 8.52
